These are literature values, as cited in patent publication US20050148593A1, “Compounds, compositions, and methods” (priority 2003, published 2005).

Usually GI50 stands for the concentration giving 50% growth inhibition.

This data set deals with A549 cells. To be noted: data provided by National Cancer Institute, Developmental Therapeutic Program.

For the molecule `O=c1[nH]cc(F)c(=O)[nH]1` [5-fluorouracil], the GI50 was 1000 nM.
As to `COc1cccc2c1C(=O)c1c(O)c3c(c(O)c1C2=O)C[C@@](O)(C(=O)CO)C[C@@H]3O[C@H]1C[C@H](N)[C@H](O)[C@H](C)O1` [doxorubicin], the GI50 was 63 nM.
With `NC(=O)NO` [hydroxyurea], the GI50 was 500000 nM.
Regarding `CC(=O)O[C@H]1C(=O)[C@@]2(C)[C@H]([C@H](OC(=O)c3ccccc3)[C@]3(O)C[C@H](OC(=O)[C@H](O)[C@@H](NC(=O)c4ccccc4)c4ccccc4)C(C)=C1C3(C)C)[C@]1(OC(C)=O)CO[C@@H]1C[C@@H]2O` [paclitaxel], the GI50 is 4 nM.
